# Patent US9308238B2, “Compositions and methods for modulating EMT and uses thereof” (Whitehead Institute for Biomedical Research, priority 2010, dated 2016)
# Experiments:
# Format in all cases: cell-based, human
# [1] = tested on: Smad transcriptional activity; test: Smad luciferase reporter assay (SBE4-luc), HMLE^24+ cells; settings: HMLE^24+ cells treated with TGF-beta (5 ng/ml, 30 min)
# Text: (§1) FIGS. 12A-12F. Concomitant stimulation of Wnt and TGF-beta pathways allows HMLE^24+ cells to enter into a mesenchymal and SC-like state. (FIG. 12A) RT-PCR: SFRP1, L32 was loading control, n=3; SFRP1 mRNA levels in HMLE^24+ stably expressing two hairpin-encoding vectors (shSFRP1a and -b) compared cells expressing a control hairpin targeting GFP (shGFP), HMLE^24+-shSFRP1b were used for iEMT experiments. (FIG. 12B) Flow cytometry: Expression of CD44 and CD24 cell-surface markers in HMLE, HMLE^24+-shGFP and -shSFRP1 cells. […] (FIG. 12F) Growth curves: proliferation of indicated cell lines was monitored by the MTS assay for 3 days, 8 passages after cessation of 14 day treatment as described in (D), n=12.
# Luciferase assays. […] Lysates were collected 24-48 hr after transfection, and firefly and Renilla luciferase activities were measured with a Dual-Luciferase Reporter System (Promega).
# [2] = tested on: luminal MECs; test: Growth curve of luminal cells in monolayers; settings: luminal cultures
# Protocol: FIGS. 14A-14D. Modulation of migratory and self-renewal abilities in basal and luminal MECs. (FIG. 14A) Growth curve: basal cells treated every 48 hrs with indicated factors, TGF-beta-type 1 receptor inhibitors A83-01 and SB431542 (10 μM), SFRP1 (1 μg/ml); cells were counted at indicated time points, n=2. (FIG. 14B) Growth curve: luminal cells treated every 48 hrs with indicated factors, TGF-beta 1 (5 ng/ml), Wnt5a (250 ng/ml), anti-DKK1-(10 μg/ml) and anti-E-Cadherin antibodies (1 μg/ml) or a combination of all factors (iEMT-II); cells were counted at indicated time points, n=2, (FIG. 14C) Microscopy images of basal cells treated as described in (A), at 4 days/before first passage. (FIG. 14D) Microscopy images of luminal cells treated as described in (B), at 4 days/before first passage.
# Primary mammary epithelial cell culture. Single-cell suspensions of primary human mammary epithelial cells (MECs) were generated from reduction mammoplasties of pre-menopausal women as previously described (Stingl et al., 2001), Data from three donors are included in this study. Primary MECs were cultured on collagen I-coated plates (Millipore) in MEGM medium (Lonza) supplemented with 1% Fetal Bovine Serum in a humidified 4% O2, 5% CO2, atmosphere.
# [3] = tested on: HMLE^24+ cells; test: Proliferation in adherent monolayer cultures after 14 day treatment; settings: after cessation of 14 day treatment
# Text: as §1
# Proliferation Assays. […] Cell viability was measured using CellTiter-Glo (Promega) according to the manufacturer's instructions.
substance,measurement,setting,value
"TGF-beta 1: recombinant TGF-beta 1 protein, used at 5 ng/ml",upregulation of Smad-reporter activity,[1],1.5 fold
same,proliferation in monolayers,[2],significantly reduced
same,proliferation rates in adherent monolayer cultures,[3],stably lower
